Test results as given in patent US9574216B2, “Auto-indicible expression system, and the use thereof for producing useful metabolites using a bacterium of the family enterobacteriaceae” (priority 2012, dated 2017).

Columns and labels:
[1] = test system: β-galactosidase LacZ; assay: Activity of β-galactosidase LacZ by Miller's method; assay type: cell-based, E. coli; conditions: strain B7; +IPTG, 1 mM; middle-logarithmic phase, M9:LB (9:1) with glucose 0.4%
Description: For the measurement of β-galactosidase activity, the strains were grown to the middle-logarithmic phase in M9:LB (9:1, v/v) medium supplemented with glucose (0.4%, w/v). The medium for the strains having ilvAYC deletion and AHAS-deficient strains was additionally supplemented with Ile (25 mg/1) and Val (25 mg/1). Activity of β-galactosidase was measured according to Miller's method (Miller J. H. (1972) Experiments in molecular genetics. Cold Spring Harbor Laboratory, Cold Spring Harbor). The data presented in Table 2 indicate that expression level of the reporter lacZ gene under PilvC promoter varies within the range of more than two orders of magnitude depending on the genetic background. The maximal expression level was provided by the E. coli strains modified to overexpress L-valine resistant AHAS I (the product of the ilvBN4 genes) or/and containing inactivated the isomeroreductase IlvC encoding gene (ilvC).

[2] = molecular target: T1, AHAS I (Escherichia coli, UniProt P08142+P0ADF8, N17K); assay: Activity of AHAS I in crude cell extracts with or without addition of 10 mM L-Val; assay type: biochemical, E. coli
T1 construct: expressed in transfected cells; host or cells: E. coli K12 B7 (VKPM B-7) ΔilvGM ΔilvIH with a chromosomal ilvBN4 operon under PilvC (or PL); crude cell extracts
T1 sequence (P08142 whole entry): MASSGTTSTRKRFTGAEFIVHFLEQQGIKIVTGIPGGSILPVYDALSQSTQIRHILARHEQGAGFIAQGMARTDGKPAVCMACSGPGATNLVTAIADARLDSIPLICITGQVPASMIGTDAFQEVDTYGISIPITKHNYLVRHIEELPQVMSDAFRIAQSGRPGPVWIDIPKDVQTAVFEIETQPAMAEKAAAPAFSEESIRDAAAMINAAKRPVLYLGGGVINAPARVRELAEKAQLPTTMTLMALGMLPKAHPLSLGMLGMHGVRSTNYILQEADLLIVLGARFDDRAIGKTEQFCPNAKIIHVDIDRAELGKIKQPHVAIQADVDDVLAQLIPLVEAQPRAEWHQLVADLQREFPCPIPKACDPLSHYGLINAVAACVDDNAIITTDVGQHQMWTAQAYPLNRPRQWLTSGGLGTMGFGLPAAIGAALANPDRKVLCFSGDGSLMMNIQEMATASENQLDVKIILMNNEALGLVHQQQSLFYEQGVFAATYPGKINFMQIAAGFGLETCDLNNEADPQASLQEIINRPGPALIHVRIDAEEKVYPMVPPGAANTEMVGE
T1 sequence (P0ADF8 whole entry N17K): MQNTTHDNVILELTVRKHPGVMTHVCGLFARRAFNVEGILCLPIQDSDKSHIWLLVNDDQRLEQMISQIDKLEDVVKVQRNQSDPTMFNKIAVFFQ
Description: Cells were grown to the middle-logarithmic phase in M9:LB (9:1, v/v) medium supplemented with glucose (0.4%, w/v). Activity of AHAS I in crude cells extracts was measured with or without addition of 10 mM L-Val according to the assay described in Stormer F. and Umbarger H., Biochem. Biophys. Res. Commun., 1964, 17(5):587-592.

| Structure (SMILES) | Specific activity of β-galactosidase [1] | AHAS I activity with L-Val, 10 mM (percent of value, measured without L-Val addition) ([2]; crude extract of strain B7 ΔilvGM ΔilvIH PL-ilvBN4 (control)) | AHAS I activity with L-Val, 10 mM ([2]; crude extract of strain B7 ΔilvGM ΔilvIH PL-ilvBN4 (control), mean of triplicate) | AHAS I activity with L-Val, 10 mM (percent of value, measured without L-Val addition) ([2]; crude extract of strain B7 ΔilvGM ΔilvIH cat-ilvY-PilvC-ilvBN4 cl.1) | AHAS I activity with L-Val, 10 mM ([2]; crude extract of strain B7 ΔilvGM ΔilvIH cat-ilvY-PilvC-ilvBN4 cl.1, mean of triplicate) | AHAS I activity with L-Val, 10 mM (percent of value, measured without L-Val addition) ([2]; crude extract of strain B7 ΔilvGM ΔilvIH cat-ilvY-PilvC-ilvBN4 cl.4) | AHAS I activity with L-Val, 10 mM ([2]; crude extract of strain B7 ΔilvGM ΔilvIH cat-ilvY-PilvC-ilvBN4 cl.4, mean of triplicate) |
| --- | --- | --- | --- | --- | --- | --- | --- |
| CC(C)S[C@@H]1O[C@H](CO)[C@H](O)[C@H](O)[C@H]1O [IPTG] | 1200 Miller's units |  |  |  |  |  |  |
| CC(C)[C@H](N)C(=O)O [L-Val, L-valine] |  | 86% | 51 nmol/min/mg | 88% | 80 nmol/min/mg | 88% | 106 nmol/min/mg |
